Measured values reported in patent US20240252486A1, “ALGOSTATIC AGENTS FOR PREVENTING TRANSITION FROM ACUTE TO CHRONIC PAIN” (The Regents of the University of California, priority 2021, published 2024).

How the values were obtained:
[1] = test system: PEA levels in ipsilateral lumbar spinal cord (L4-L6); assay: PEA quantification in lumbar spinal cord (LC/MS-MS); type: in vivo, mouse; settings: post-formalin ARN19702 30 mg-kg^−1 IP on PFD2-4; 2 h after administration
Experimental: Lipid extraction: Lumbar L4-L6 spinal cord fragments (˜15 mg each) were transferred into 2 ml Precellys® soft tissue tubes (Bertin Instruments, France) and diluted with ice-cold acetone (1 ml) containing [2H4]-PEA (50 μl, 100 nM) Samples were homogenized at 4° C., 6000 rpm, 15 s/cycle for 2 cycles with 20 s pause in between cycles. Supernatants were transferred into 8-ml glass vials and dried under nitrogen. Chloroform/methanol (2/1, vol, 3 ml) and water (1 ml) were added to the samples, which were then stirred vigorously and centrifuged at 830×g for 15 min at 4° C. The lower (organic) phases were collected and upper phases were extracted again with chloroform (2 ml) and combined with the previous extract. Extracts were dried under nitrogen, reconstituted in acetonitrile (0.1 ml), transferred to deactivated glass inserts and placed inside amber glass vials for liquid chromatography/tandem mass spectrometry (LC/MS-MS) analyses.
PEA quantification: PEA was fractionated using a 1260 series LC system (Agilent Technologies, Santa Clara, CA) coupled to a 6460C triple-quadrupole mass spectrometric detector (MSD; Agilent). […] The MSD was operated in the positive electrospray ionization mode, and analytes were quantified by multiple reaction monitoring. […]

[2] = test system: formalin-injected mice; assay: Formalin-induced chronic pain-like state (CPLS): persistent hypersensitivity to heat and mechanical stimuli; type: in vivo, mouse
[3] = Body-weight gain after formalin; type: in vivo, mouse; settings: ARN19702 30 mg-kg^−1 IP once daily for 3 days starting 24 h after formalin; PFD14
[4] = as effectively as does ARN077; cited from earlier work
[5] = test system: formalin-injected mice; assay: Formalin-induced paw edema; type: in vivo, mouse
Experimental: Paw edema was measured with a digital caliper (Fisher Scientific, USA) and is expressed as the difference (A paw thickness, mm) between ipsilateral and contralateral paws.

[6] = test system: formalin-injected mice; assay: Elevated plus maze test (anxiety-like behavior) after formalin; type: in vivo, mouse; settings: ARN19702 30 mg-kg^−1 IP once daily for 3 days starting 24 h after formalin; PFD7
Experimental: (§1) Elevated plus maze test: We placed each mouse in the central platform of the maze, facing the open arm opposite to the experimenter, and behavior was recorded using the Debut video capture software (NCH Software, Canberra, Australia). A blinded observer measured the amount of time spent in the open and closed arms, as well as the number of open and closed arm entries. The open arms of the maze were illuminated at 150-170 lux and the closed arms at 40-50 lux.
as §1, with “lux. The anxiety index was calculated as follows: […]” for “lux.”

[7] = test system: formalin-injected mice; assay: 24-h novel object recognition test (long-term memory) after formalin; type: in vivo, mouse; settings: ARN19702 30 mg-kg^−1 IP once daily for 3 days starting 24 h after formalin; PFD14
Experimental: The test was conducted over 3 days.
The test was conducted over 3 days. […] The discriminatory index was calculated as follows: […]

[8] = pretreatment, ARN16186 10 mg-kg^−1 IP, ARN19702 30 mg-kg^−1 IP, wild-type mice, 1% formalin

CCS(=O)(=O)c1ccccc1C(=O)N1CCN(c2nc3ccc(F)cc3s2)C[C@@H]1C [ARN19702]
PEA levels in ipsilateral lumbar spinal cord (L4-L6) [1]: normalized | protection from CPLS consolidation ([2]; ARN19702 30 mg-kg^−1 IP given on PFD1 or PFD5 to PFD9): no such effect | protection from CPLS consolidation ([2]; ARN19702 30 mg-kg^−1 IP given on PFD2): partially effective | protection from CPLS consolidation ([2]; ARN19702 30 mg-kg^−1 IP given once on PFD3 or PFD4): full protection | sex dependence of the protective effects (contralateral hyperalgesia in female mice) ([2]; ARN19702 30 mg-kg^−1 IP once daily PFD1 to PFD3): not sex-dependent | CPLS consolidation ([2]; ARN19702 30 mg-kg^−1 IP once daily for 3 consecutive days starting 24 h after formalin, male mice): effectively halted | evoked hypersensitivity (sensory responses) ([2]; ARN19702 30 mg-kg^−1 IP once daily for 3 days starting 24 h after formalin, male mice): normalizing | pain behaviors (acute effect) ([2]; ARN19702 30 mg-kg^−1 IP, at all time points PFD1 to PFD9): temporarily attenuated | transition to CPLS in PPAR-α-null mice ([2]; ARN19702 30 mg-kg^−1 IP, Ppara^−/− mice, PFD14): unaffected | persistent hypersensitivity (CPLS) elicited by formalin ([2]; post-injury intrathecal infusion, 30 ng, 5 μL, at PFD2 and PFD4, assessed PFD14): stopped | NAAA-null phenotype (weakened nocifensive response, no inflammation or persistent hypersensitivity after formalin) ([2]; pretreatment of wild-type mice, ARN19702 30 mg-kg^−1 IP, ARN16186 10 mg-kg^−1 IP): recapitulated | persistent contralateral hyperalgesia (PFD14) [2, 8]: prevents | body-weight gain [3]: normalizing | nociceptive behavior evoked by formalin or CCI [4]: suppresses | paw edema (PFD14) [5, 8]: prevents | paw edema ([5]; three-day ARN19702 regimen (30 mg-kg^−1 IP) after formalin, PFD14): no detectable influence | anxiety-like behavior [6]: normalizing | memory deficits [7]: normalizing
